Here are results for one cell line from the supplement of paper PMC10307832.

Common to all, as to assay: relative viability (nuclei count vs DMSO), 5 days (fraction); higher = more cells survive
Compound in assay [1]: C1CNCCC1C2=CC(=NN2)C3=CC=NC=C3 + O=C(c1cc(Cc2n[nH]c(=O)c3ccccc23)ccc1F)N1CCN(C(=O)C2CC2)CC1 [Olaparib] (partner 8 µM)
A digest of the protocol: (§1)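 Relative viability equals treated-well nuclei counts divided by vehicle-well nuclei counts. Counts came from 4× images of lung cancer cell lines grown in 1536-well plates for 5 days after pin-tool dosing on the day after seeding. Dosing used one drug alone or a fixed anchor-drug dose plus five library-drug doses (not always all listed) in √10 steps, and values are medians of duplicate plates.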

Compound in assay [2]: O[C@H]1CC[C@H](Nc2ncc3nc(Nc4c(F)cc(F)cc4F)n([C@H]4CCOC4)c3n2)CC1 [Tanzisertib] + CC(=O)c1c(C)c2cnc(Nc3ccc(N4CCNCC4)cn3)nc2n(C2CCCC2)c1=O [Palbociclib] (partner 0.5 µM)
The method, boiled down:
as §1

Compound in assay [3]: C[C@@H](N)c1ccc(C(=O)Nc2ccnc3[nH]ccc23)cc1 + N=C(N)NC(=N)NCCc1ccccc1 [Phenformin] (partner 250 µM)
A digest of the protocol:
as §1

Compound in the assay “Tanzisertib + Olaparib”: O[C@H]1CC[C@H](Nc2ncc3nc(Nc4c(F)cc(F)cc4F)n([C@H]4CCOC4)c3n2)CC1 [Tanzisertib] + O=C(c1cc(Cc2n[nH]c(=O)c3ccccc23)ccc1F)N1CCN(C(=O)C2CC2)CC1 [Olaparib] (partner 8 µM)
A digest of the protocol:
as §1

For UMC-11, the relative viability in assay [1] (first compound 0.08 µM) is 0.403; in assay [1] (first compound 0.8 µM), 0.379; in assay [1] (first compound 2.53 µM), 0.436; in assay [1] (first compound 8 µM) it was 0.365; in assay [2] (first compound 0.08 µM), 0.346; in assay [2] (first compound 0.253 µM), 0.285. For the same cell line, the relative viability in assay [2] (first compound 0.8 µM) was 0.319; in assay [2] (first compound 2.53 µM) it was 0.325; in assay [2] (first compound 8 µM), 0.355; in assay [3] (first compound 0.04 µM), 0.268; in assay [3] (first compound 0.1265 µM), 0.358; in assay [3] (first compound 0.4 µM), 0.354. For the same cell line, the relative viability in assay [3] (first compound 1.265 µM) was 0.228; in assay [3] (first compound 4 µM), 0.234; with Tanzisertib + Olaparib (first compound 0.08 µM) it was 0.355; in the assay with Tanzisertib + Olaparib (first compound 0.253 µM), 0.412; with Tanzisertib + Olaparib (first compound 0.8 µM), 0.411; with Tanzisertib + Olaparib (first compound 2.53 µM), 0.501. The relative viability in the assay with Tanzisertib + Olaparib (first compound 8 µM) came out at 0.388.
